Results published in patent US20260317324A1, “BIFUNCTIONAL COMPOUNDS FOR DEGRADING BRAF VIA UBIQUITIN PROTEOSOME PATHWAY” (Nurix Therapeutics, Inc., priority 2023, published 2026).

Columns and labels:
Assay type in all cases: cell-based
BRAF D594G = molecular target: T1, BRAF D594G (Homo sapiens, UniProt P15056, D594G); assay: BRAF HiBiT degradation assay, C-terminal HiBiT-tagged BRAF D594G overexpressed in HCT-116 BRAF−/− cells (clone 63), Nano-Glo HiBiT Lytic assay
T1 construct: Horizon Discovery (HCT-116 BRAF−/− cells); host or cells: HCT-116 BRAF−/− cells, clone 63, lentiviral transduction
T1 sequence (P15056 whole entry D594G): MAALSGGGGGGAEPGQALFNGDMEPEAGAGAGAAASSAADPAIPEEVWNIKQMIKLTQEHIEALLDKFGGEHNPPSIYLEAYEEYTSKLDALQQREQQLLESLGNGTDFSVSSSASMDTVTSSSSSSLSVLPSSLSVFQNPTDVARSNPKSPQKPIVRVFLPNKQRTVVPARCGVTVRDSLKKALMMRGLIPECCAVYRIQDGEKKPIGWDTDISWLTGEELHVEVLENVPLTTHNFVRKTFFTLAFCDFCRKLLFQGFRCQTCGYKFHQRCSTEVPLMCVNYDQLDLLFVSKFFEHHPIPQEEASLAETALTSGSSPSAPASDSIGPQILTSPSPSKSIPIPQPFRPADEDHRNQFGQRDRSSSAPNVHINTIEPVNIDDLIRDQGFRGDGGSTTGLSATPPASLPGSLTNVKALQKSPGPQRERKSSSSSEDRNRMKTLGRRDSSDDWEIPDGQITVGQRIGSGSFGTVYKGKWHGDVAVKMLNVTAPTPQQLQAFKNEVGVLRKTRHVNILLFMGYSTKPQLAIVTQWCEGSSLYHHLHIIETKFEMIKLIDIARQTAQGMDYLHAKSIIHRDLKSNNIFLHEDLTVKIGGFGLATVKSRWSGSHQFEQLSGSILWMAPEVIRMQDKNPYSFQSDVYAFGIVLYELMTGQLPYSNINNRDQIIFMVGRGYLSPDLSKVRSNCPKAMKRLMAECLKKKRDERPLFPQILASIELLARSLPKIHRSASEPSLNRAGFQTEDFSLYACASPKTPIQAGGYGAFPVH
How it was run: (§1)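 We quantified degradation of the C-terminally HiBiT-tagged, overexpressed mutant by lytic luminescence, normalizing to DMSO-treated cells with wild-type HCT-116 background subtracted. Dose series ran from 1 μM to 0.01 nM at 0.2% DMSO. Observed Dmax is % degraded at maximal effect.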

BRAF G469A = molecular target: T2, BRAF G469A (Homo sapiens, UniProt P15056, G469A); assay: BRAF HiBiT degradation assay, C-terminal HiBiT-tagged BRAF G469A overexpressed in HCT-116 BRAF−/− cells (clone 34), Nano-Glo HiBiT Lytic assay
T2 construct: Horizon Discovery (HCT-116 BRAF−/− cells); host or cells: HCT-116 BRAF−/− cells, clone 34, lentiviral transduction
T2 sequence (P15056 whole entry G469A): as the sequence (P15056 whole entry D594G) above, with G469A, G594D counted along it
How it was run: as §1

BRAF G466V = molecular target: T3, BRAF G466V (Homo sapiens, UniProt P15056, G466V); assay: BRAF HiBiT degradation assay, C-terminal HiBiT-tagged BRAF G466V overexpressed in HCT-116 BRAF−/− cells (clone 8), Nano-Glo HiBiT Lytic assay
T3 construct: Horizon Discovery (HCT-116 BRAF−/− cells); host or cells: HCT-116 BRAF−/− cells, clone 8, lentiviral transduction
T3 sequence (P15056 whole entry G466V): as the sequence (P15056 whole entry D594G) above, with G466V, G594D counted along it
How it was run: as §1

BRAF V600E = molecular target: T4, BRAF V600E (Homo sapiens, UniProt P15056, V600E); assay: BRAF HiBiT degradation assay, C-terminal HiBiT-tagged BRAF V600E A375 cells (clone 1F10), Nano-Glo HiBiT Lytic assay; settings: for Dmax: A-375
T4 construct: endogenous C-terminal HiBiT fusion tag on BRAF V600E allele; endogenous in cells; host or cells: A375 clone 1F10 (CRISPR-Cas9 knock-in of the HiBiT tag; parental A375 from ATCC)
T4 sequence (P15056 whole entry V600E, the tested form may be a part): as the sequence (P15056 whole entry D594G) above, with G594D, V600E counted along it
How it was run: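 Steps: seed HiBiT-tagged A375 clone 1F10 cells; incubate 24 h, 37 °C, 5% CO2; add compound (11 half-log points from 1 μM, 0.2% DMSO); lyse with HiBiT detection reagent plus LgBiT for 10 min; read luminescence; fit % protein remaining against concentration.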

[1] = BRAF D594G (Class 3), HCT-116 BRAF−/− cells, DC50 at 50% degradation
[2] = BRAF D594G (Class 3), HCT-116 BRAF−/− cells, observed Dmax relative to DMSO control
[3] = BRAF G469A (Class 2), HCT-116 BRAF−/− cells, DC50 at 50% degradation
[4] = BRAF G469A (Class 2), HCT-116 BRAF−/− cells, observed Dmax relative to DMSO control
[5] = BRAF G466V (Class 3), HCT-116 BRAF−/− cells, DC50 at 50% degradation
[6] = BRAF G466V (Class 3), HCT-116 BRAF−/− cells, observed Dmax relative to DMSO control
[7] = A375 (BRAF V600E, Class 1), DC50 at 50% degradation
[8] = A375 (BRAF V600E, Class 1), observed Dmax, % protein degraded relative to DMSO control
[9] = BRAF D594G, DC50 at 50%: fitted conc. at Y=50
[10] = HCT-116, BRAF D594G, percentage protein degraded at maximal compound effect relative to DMSO
[11] = Class 2, BRAF G469A, DC50 at 50%: fitted conc. at Y=50
[12] = HCT-116, Class 2, BRAF G469A, percentage protein degraded at maximal compound effect relative to DMSO
[13] = BRAF G466V, DC50 at 50%: fitted conc. at Y=50
[14] = HCT-116, BRAF G466V, percentage protein degraded at maximal compound effect relative to DMSO
[15] = A375 (BRAF V600E), DC50 at 50%: fitted conc. at Y=50
[16] = A375 (BRAF V600E), percentage protein degraded at maximal compound effect relative to DMSO

Row | DC50 (BRAF D594G; [1]) [µM] | Dmax (BRAF D594G; [2]) [%] | DC50 (BRAF G469A; [3]) [µM] | Dmax (BRAF G469A; [4]) [%] | DC50 (BRAF G466V; [5]) [µM] | Dmax (BRAF G466V; [6]) [%] | DC50 (BRAF V600E; [7]) [µM] | Dmax (BRAF V600E; [8]) [%] | DC50 (BRAF D594G; [9]) [µM] | Dmax (BRAF D594G; [10]) [%] | DC50 (BRAF G469A; [11]) [µM] | Dmax (BRAF G469A; [12]) [%] | DC50 (BRAF G466V; [13]) [µM] | Dmax (BRAF G466V; [14]) [%] | DC50 (BRAF V600E; [15]) [µM] | Dmax (BRAF V600E; [16]) [%] | SMILES
1 | 0.01 to 0.05 | 30 to 70 | 0.05 to 0.5 | 30 to 70 | < 0.01 | > 70 | < 0.01 | > 70 |  |  |  |  |  |  |  |  | CCN(C)S(=O)(=O)Nc1cc(Cl)cc(-c2cn(-c3ccc(N4CCN(CC5CCN(c6ccc(N7CCC(=O)NC7=O)cc6)CC5)CC4)cc3)nc2-c2ccncc2)c1F [Compound 307, 1-(4-{4-[(4-{4-[4-(5-chloro-3-{[ethyl(methyl)sulfamoyl]amino}-2-fluorophenyl)-3-(pyridin-4-yl)-1H-pyrazol-1-yl]phenyl}piperazin-1-yl)methyl]piperidin-1-yl}phenyl)-1,3-diazinane-2,4-dione]
2 |  |  |  |  |  |  |  |  | > 0.5 | < 30 | > 0.5 | < 30 | > 0.5 | < 30 | 0.05 to 0.5 | 30 to 70 | CCCS(=O)(=O)Nc1cccc(-c2nc(C(C)(C)C)sc2-c2ccnc(NC3CC4(C3)CN(CC3CCN(c5ccc(C(=O)NC6CCC(=O)NC6=O)cc5)CC3)C4)n2)c1F (racemic) [Compound 170, Rac-4-[4-({6-[(4-{2-tert-butyl-4-[2-fluoro-3-(propane-1-sulfonamido)phenyl]-1,3-thiazol-5-yl}pyrimidin-2-yl)amino]-2-azaspiro[3.3]heptan-2-yl}methyl)piperidin-1-yl]-N-[(3R)-2,6-dioxopiperidin-3-yl]benzamide]
3 | < 0.01 | 30 to 70 | 0.05 to 0.5 | 30 to 70 | < 0.01 | > 70 | < 0.01 | > 70 |  |  |  |  |  |  |  |  | C[C@@H]1CN(c2ccc(-n3cc(-c4cc(Cl)cc(NS(=O)(=O)N5CCCC5)c4F)c(-c4ccncc4)n3)cc2)CCN1CC1CCN(c2ccc(N3CCC(=O)NC3=O)cc2)CC1 [Compound 319, N-[5-chloro-3-(1-{4-[(3R)-4-({1-[4-(2,4-dioxo-1,3-diazinan-1-yl)phenyl]piperidin-4-yl}methyl)-3-methylpiperazin-1-yl]phenyl}-3-(pyridin-4-yl)-1H-pyrazol-4-yl)-2-fluorophenyl]pyrrolidine-1-sulfonamide]
4 |  |  |  |  |  |  |  |  | > 0.5 | 30 to 70 | > 0.5 | 30 to 70 | 0.05 to 0.5 | 30 to 70 | 0.01 to 0.05 | > 70 | CCCS(=O)(=O)Nc1cccc(-c2nc(C(C)(C)C)sc2-c2ccnc(Nc3ccc(N4CCN(CC5CCN(c6ccc([C@@H]7CCC(=O)NC7=O)cc6)CC5)CC4)cc3)n2)c1F [Compound 58, N-[3-(2-tert-butyl-5-{2-[(4-{4-[(1-{4-[(3S)-2,6-dioxopiperidin-3-yl]phenyl}piperidin-4-yl)methyl]piperazin-1-yl}phenyl)amino]pyrimidin-4-yl}-1,3-thiazol-4-yl)-2-fluorophenyl]propane-1-sulfonamide]
5 | < 0.01 | > 70 | < 0.01 | > 70 | < 0.01 | > 70 | < 0.01 | > 70 |  |  |  |  |  |  |  |  | C[C@@H]1CN(c2ccc(-n3cc(-c4cc(Cl)cc(NS(=O)(=O)N5CC[C@@H](F)C5)c4F)c(-c4ccncc4)n3)nc2)CCN1CC1CCN(c2ccc([C@H]3CCC(=O)NC3=O)cc2)CC1 [Compound 320, (3R)—N-[5-chloro-3-(1-{5-[(3R)-4-[(1-{4-[(3R)-2,6-dioxopiperidin-3-yl]phenyl}piperidin-4-yl)methyl]-3-methylpiperazin-1-yl]pyridin-2-yl}-3-(pyridin-4-yl)-1H-pyrazol-4-yl)-2-fluorophenyl]-3-fluoropyrrolidine-1-sulfonamide]
6 | < 0.01 | 30 to 70 | 0.01 to 0.05 | > 70 | < 0.01 | > 70 | < 0.01 | > 70 |  |  |  |  |  |  |  |  | O=C1CC[C@H](c2ccc(N3CCC(CN4CCN(c5ccc(-n6cc(-c7cc(F)cc(NS(=O)(=O)N8CCCC8)c7F)c(-c7ccncc7)n6)cc5)CC4)CC3)nc2)C(=O)N1 [Compound 301, N-{3-[1-(4-{4-[(1-{5-[(3R)-2,6-dioxopiperidin-3-yl]pyridin-2-yl}piperidin-4-yl)methyl]piperazin-1-yl}phenyl)-3-(pyridin-4-yl)-1H-pyrazol-4-yl]-2,5-difluorophenyl}pyrrolidine-1-sulfonamide]
7 | > 0.5 | < 30 | > 0.5 | < 30 | > 0.5 | < 30 | < 0.01 | > 70 |  |  |  |  |  |  |  |  | O=C1CCC(N2C(=O)c3ccc(N4CC(CN5CC(c6ccc(-n7cc(-c8ccc9c(c8)CC/C9=N/O)c(-c8ccncc8)n7)cc6)C5)C4)cc3C2=O)C(=O)N1 (racemic) [Compound 262, Rac-2-[(3R)-2,6-dioxopiperidin-3-yl]-5-(3-{[3-(4-{4-[(1Z)-1-(hydroxyimino)-2,3-dihydro-1H-inden-5-yl]-3-(pyridin-4-yl)-1H-pyrazol-1-yl}phenyl)azetidin-1-yl]methyl}azetidin-1-yl)-2,3-dihydro-1H-isoindole-1,3-dione]
8 | < 0.01 | 30 to 70 | 0.01 to 0.05 | 30 to 70 | < 0.01 | 30 to 70 | < 0.01 | > 70 |  |  |  |  |  |  |  |  | O=C1CCN(c2ccc(N3CCC(CN4CCN(c5ccc(-n6cc(-c7cc(Cl)cc(NS(=O)(=O)N8CC(F)C8)c7F)c(-c7ccncc7)n6)cc5)CC4)CC3)nc2)C(=O)N1 [Compound 368, N-[5-chloro-3-(1-{4-[4-({1-[5-(2,4-dioxo-1,3-diazinan-1-yl)pyridin-2-yl]piperidin-4-yl}methyl)piperazin-1-yl]phenyl}-3-(pyridin-4-yl)-1H-pyrazol-4-yl)-2-fluorophenyl]-3-fluoroazetidine-1-sulfonamide]
9 |  |  |  |  |  |  |  |  | 0.05 to 0.5 | 30 to 70 | > 0.5 | < 30 | > 0.5 | < 30 | < 0.01 | > 70 | CCCS(=O)(=O)Nc1cccc(-c2nc(C(C)(C)C)sc2-c2ccnc(Nc3cccc(OC4CCN(C(=O)C5CCN(c6cc(C7CCC(=O)NC7=O)ccn6)CC5)CC4)c3)n2)c1F (racemic) [Compound 100, Rac-N-[3-(2-tert-butyl-5-{2-[(3-{[1-(1-{4-[(3R)-2,6-dioxopiperidin-3-yl]pyridin-2-yl}piperidine-4-carbonyl)piperidin-4-yl]oxy}phenyl)amino]pyrimidin-4-yl}-1,3-thiazol-4-yl)-2-fluorophenyl]propane-1-sulfonamide]
10 | < 0.01 | > 70 | < 0.01 | > 70 | < 0.01 | > 70 | < 0.01 | > 70 |  |  |  |  |  |  |  |  | O=C1CC[C@H](c2ccc(N3CCC(CN4CCN(c5ccc(-n6cc(-c7cc(F)cc(NS(=O)(=O)N8CC[C@@H](F)C8)c7F)c(-c7ccncc7)n6)nc5)CC4)CC3)nc2)C(=O)N1 [Compound 305, (3R)—N-{3-[1-(5-{4-[(1-{5-[(3R)-2,6-dioxopiperidin-3-yl]pyridin-2-yl}piperidin-4-yl)methyl]piperazin-1-yl}pyridin-2-yl)-3-(pyridin-4-yl)-1H-pyrazol-4-yl]-2,5-difluorophenyl}-3-fluoropyrrolidine-1-sulfonamide]
11 | < 0.01 | 30 to 70 | 0.05 to 0.5 | 30 to 70 | 0.01 to 0.05 | 30 to 70 | < 0.01 | > 70 |  |  |  |  |  |  |  |  | O=C1CCN(c2ccc(N3CCC(CN4CCN(c5ccc(-n6cc(-c7cc(F)cc(NS(=O)(=O)N8CC[C@@H](F)C8)c7F)c(-c7ccncc7)n6)nc5)CC4)CC3)cc2)C(=O)N1 [Compound 303, (3R)—N-[3-(1-{5-[4-({1-[4-(2,4-dioxo-1,3-diazinan-1-yl)phenyl]piperidin-4-yl}methyl)piperazin-1-yl]pyridin-2-yl}-3-(pyridin-4-yl)-1H-pyrazol-4-yl)-2,5-difluorophenyl]-3-fluoropyrrolidine-1-sulfonamide]
